Values of other authors as cited in patent publication US6468993B1, “Method for reducing development of osteoporosis” (BioNumerik Pharmaceuticals, Inc., priority 1999, dated 2002).

Columns and labels:
[1] = tested on: dogs; conditions: intravenously, doses higher than 3750 mg/kg
[2] = tested on: humans; conditions: doses exceeding 40 g/m^2
[3] = tested on: mice; conditions: intravenously, doses higher than 3750 mg/kg

O=S(=O)([O-])CCSSCCS(=O)(=O)[O-].[Na+].[Na+] [dimesna, disodium 2,2′-dithiobis ethane sulfonate]
adverse effects after administration [1]: no adverse effects | adverse effects after administration [2]: no adverse effects | adverse effects after administration [3]: no adverse effects

[Cl-].[Na+] [common table salt]
accepted oral LD50: 3750 mg/kg
